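In this assay, cells in 96-well plates receive the compound at five concentrations for 48 hours. Endpoints are linearly interpolated between the surrounding concentrations. GI50 = concentration required for 50% inhibition of growth. TGI: concentration producing complete growth inhibition.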 A value given as a limit tells only on which side of the number the result lay.

Holding throughout (test): NCI anticancer screen, dose series, 48 h
Experiment [1] has as its system MDA-N.
The test system of experiment [2] is LXFL 529 NSCLC.
Experiment [3] deals with M19-MEL melanoma.
Experiment [4] has as its system KM20L2 colon.
The subject of experiment [5] is XF 498 CNS.
In experiment [6] the test system is HOP-18 NSCLC.
For experiment [7], the system named is RXF-631 renal.
The subject of experiment [8] is DMS 273 small cell lung.
The subject of experiment [9] is SNB-78 CNS.

`O=C(O)c1cc(N=Cc2ccccc2O)cc(C(=O)O)c1` gave a TGI in experiment [1] of over 100 µM.

As to `CCOC(=O)C1SC(=Nc2ccc(Cl)c(Cl)c2)N=C1C` (configuration not stated), the TGI in experiment [2] is over 100 µM; in [3] it was over 100 µM; in experiment [4] it was 78.8 µM; in [5] it was over 100 µM; in experiment [6] it was over 100 µM; in experiment [7] it was over 100 µM. Further, the TGI in [8] was over 100 µM.

In turn, `Cc1ccc2c(c1)NC(=O)CC(c1ccccc1)=N2` showed a TGI in experiment [1] of 60.7 µM.

For `CCN(CCCl)CCCNc1c2ccccc2nc2ccc(OC)cc12`, the GI50 was 585 µM in experiment [9], 323 µM in experiment [3], 381 µM in experiment [5] and 177 µM in experiment [8]. For the same compound, the TGI came to 1.7 µM in experiment [2] and 2.2 µM in experiment [4].

`c1ccc2c(c1)[nH]c1cnc3c4cccnc4[nH]c3c12`: the TGI in [9] was 46.6 µM; in [2] it was 35.5 µM; in experiment [3], 31.5 µM; in [6], 36.7 µM.

In experiment [1], `COc1cccc(/C=C/c2cnc3ccccc3n2)c1OC` registered a TGI of over 100 µM.

`O=C1CN(C(=O)c2ccccc2)Cc2[nH]c3ccccc3c21`: the TGI in [9], in experiment [2], in experiment [3], in experiment [4], in [5] and in [6] was over 100 µM each time. In addition, the TGI in experiment [7] and in [8] was over 100 µM throughout.

Regarding `CCCCOC(=O)NC(=O)c1cn(CCSCCOC(=O)NCCCCCCNC(=O)OCCSCCn2cc(C(=O)NC(=O)OCCCC)c(=O)[nH]c2=O)c(=O)[nH]c1=O`, the TGI in experiment [9], in experiment [2], in [3], in experiment [4], in experiment [6] and in experiment [7] was over 100 µM in each case. The same compound returned a TGI in experiment [8] of over 100 µM.

Consider `O=C(OCC1CO1)c1cccs1` (configuration not stated), for which the TGI in experiment [9], in experiment [2], in experiment [3], in [4], in [5] and in [7] was over 100 µM throughout. Besides, the TGI in [8] is over 100 µM.

With `Nc1c(C(=O)Nc2ccccc2)[n+]([O-])c2ccccc2[n+]1[O-]`, the TGI in experiment [9] was 40.4 µM; in [2], 28.1 µM; in experiment [3], 32.2 µM; in experiment [4], 34.7 µM; in experiment [5] it was 32.6 µM; in experiment [6], 26.3 µM. Moreover, the TGI in experiment [8] was 46.9 µM.

With `COc1ccc(/C=C\c2cc(OC)c(OC)c(OC)c2)cc1OC(=O)CCC(=O)O`, the TGI in experiment [1] was over 100 µM.

In experiment [1], `CC(=O)OC1CC2(O)C3CCC4CC(O)CCC4(C)C3CCC2(C)C1C1=CC(=O)OC1` (configuration not stated) displayed a TGI of 0.317 µM.

On to `Fc1ccc(C2SCc3nc4ccccc4n32)cc1` (configuration not stated), for which the TGI in experiment [9], in experiment [2], in experiment [3] and in experiment [5] was over 100 µM in each case.

Take `Cc1cccc(C2=NC(C)(C)C(C)(C)N=C2c2cccc(C)n2)n1`: the TGI in experiment [9], in [2], in [3], in [4], in experiment [5] and in experiment [6] was over 100 µM in each case. Besides, the TGI in experiment [7] and in [8] was over 100 µM each time.

As to `CC(C)(C)C(=O)ON1N=NC2C3CC(OCc4ccccc4)(OCc4ccccc4)C(O3)C21` (configuration not stated), the TGI in experiment [9] is over 100 µM; in experiment [2], 25.8 µM; in [3], 30 µM; in experiment [4], 77.5 µM; in experiment [5] it was 33.5 µM; in experiment [6] it was 94.2 µM. For the same compound, the figures for the TGI in experiment [7] and in experiment [8] were 82.1 µM and 51.2 µM, respectively.

Consider `C/C(=N\N=C(/[Se])N1CC2CCC(CC2)C1)c1ccccn1`, for which the TGI in [9] turned out to be 2.88 µM; in experiment [2], 0.0256 µM; in [3] it was 0.559 µM; in [4], 0.682 µM; in experiment [5] it was 0.0981 µM; in experiment [6] it was 1.98 µM. For the same compound, the TGI in experiment [1] stood at 2.6 µM; in experiment [7], 3.88 µM; in [8] it was 1.79 µM.

On to `Cc1ccc(SC2=CC(=O)c3nc4ccccc4c4ccnc2c34)cc1`, for which, in [1], the GI50 is 28.8 µM and the TGI was over 75 µM.

`COC(=O)C1(F)C(=O)NC(=O)NC1O` (configuration not stated): the TGI in experiment [1] is over 100 µM.

With `O=C1Nc2cc([N+](=O)[O-])ccc2NC1/C(=N\Nc1ccccc1)C(O)c1cccc([N+](=O)[O-])c1` (configuration not stated), the TGI in experiment [9], in experiment [2], in experiment [3], in experiment [4], in [5] and in experiment [7] was over 100 µM in each case. The TGI in experiment [8] was over 100 µM.

Turning to `Cc1cc(NS(=O)(=O)c2ccc(NC(=O)c3cccc4c(Nc5ccc(S(=O)(=O)N=C(N)N)cc5)c5ccccc5nc34)cc2)no1`, the TGI in experiment [9], in experiment [2], in experiment [4], in experiment [7] and in experiment [8] was over 100 µM throughout.

Turning to `CN1CC(C(=O)C2C(=O)c3ccccc3C2=O)C(=O)C(=O)C(C(=O)C2C(=O)c3ccccc3C2=O)C1` (configuration not stated), the TGI in experiment [5], in experiment [7] and in experiment [8] was over 100 µM in each case.

As to `O=C(C(=O)N1CC2C=CC1CC2)c1c[nH]c2ccccc12` (configuration not stated), the TGI in [9], in experiment [2], in [3], in experiment [4], in experiment [6] and in [7] was over 100 µM each time. Further, the TGI in experiment [8] is over 100 µM.

Take `O=C1c2c(nc3ccccc3c2-c2ccccc2)CN1Nc1ccccn1`: the TGI in experiment [9] was over 42.3 µM; in experiment [2], over 100 µM; in experiment [3] it was over 100 µM; in experiment [5], over 100 µM; in experiment [1] it was over 100 µM; in [7] it was 50.7 µM. Besides, the TGI in experiment [8] is over 100 µM.

Turning to `C1OC1CO[C@@H]1CO[C@H]2[C@@H]1OC[C@H]2OCC1CO1` (some centres not stated), the TGI in experiment [9], in experiment [3], in experiment [4], in [5], in [6] and in experiment [8] was over 100 µM throughout.

As to `CCOC(=O)C(=Cc1ccc(C(=O)OC)cc1)C(=O)OCC`, the TGI in experiment [2] was 3.62 µM; in [3] it was 10.2 µM; in experiment [4], 14.1 µM; in experiment [6], 10.7 µM; in experiment [8], 3.9 µM.

Regarding `CCCCOP1(=O)C=C(C)C(=C(Cl)Cl)C(C)=C1` (configuration not stated), the TGI in experiment [9] was 6.04 µM; in [3] it was 32.9 µM; in experiment [4], 5.13 µM; in experiment [5] it was 46.2 µM; in experiment [6], 82.2 µM; in [7], 33.9 µM. In experiment [8], this compound gave a TGI of 16.6 µM.

For `NC(=O)C(c1ccccc1)N1CCOCC1` (configuration not stated), the TGI in [9], in [2], in experiment [3], in [4], in experiment [6] and in [8] was over 100 µM in each case.

Consider `COc1ccccc1NC(=O)C1=C(C)NC(C)=C(C(=O)Nc2ccccc2OC)C1c1ccc(C)cc1`, for which the TGI in [9], in experiment [2], in experiment [3], in experiment [4], in [5] and in [6] was over 100 µM in each case. Further, the TGI in [8] was over 100 µM.

As for `CCN(c1ccc(Br)cc1)c1c(Br)c(=O)nc2ccccn12`, the TGI in experiment [9], in [2], in [3], in experiment [4], in experiment [5] and in experiment [7] was over 100 µM throughout. In experiment [8], this compound gave a TGI of over 100 µM.

On to `COc1cccc(Cc2c3cc(OC)ccc3cc[n+]2C)c1`, for which the TGI in experiment [9] was over 100 µM; in experiment [2], over 100 µM; in experiment [4], over 100 µM; in [5] it was 70.7 µM.

For `CC(=O)OC1(C)C(=O)OC1(C)C(C)=O` (configuration not stated), the TGI in experiment [9], in experiment [2], in [3], in experiment [4], in [6] and in experiment [7] was over 100 µM throughout. This compound also gave a TGI in experiment [8] of over 100 µM.

On to `CC1=CCC23C(C1)OC(Br)(C=CC2(C)O)C3(C)C` (configuration not stated), for which the TGI in [9], in experiment [3], in experiment [5], in experiment [6] and in experiment [8] was over 100 µM throughout.

As to `COc1cc2c[n+](C)c3c4ccccc4ccc3c2cc1OC` (tested in a mixture with another compound), the TGI turned out to be 16 µM in experiment [2]; 15.4 µM in experiment [3]; 37.9 µM in experiment [4]; 17.7 µM in experiment [5]; 76.8 µM in [6]; 20.5 µM in [1]. In addition, the values for the TGI in experiment [7] and in [8] were over 66.1 µM and 15.7 µM, respectively.

As to `O=C(CC(=O)N1N=C(N2c3ccccc3Sc3ccccc32)CC1c1ccccc1)Nc1ccc(Cl)cc1` (configuration not stated), the TGI in experiment [9], in [2], in [3], in [4], in experiment [5] and in [6] was over 100 µM throughout. In [8], the TGI is over 100 µM.

`CCSC1=C(C)N(C=NC(C)(C)C)CC1`: the TGI in [9], in [2], in [3], in experiment [4], in [5] and in experiment [6] was over 100 µM throughout. In addition, the TGI in experiment [7] and in experiment [8] was over 100 µM in each case.

Consider `O=C1c2c(n(Cc3ccccc3)c(=O)n2Cc2ccccc2)C(=O)N1Cc1ccccc1`, for which the TGI in experiment [9] is over 100 µM; in [2], over 100 µM; in experiment [3] it was over 100 µM; in experiment [4], over 100 µM; in experiment [5], 98.5 µM; in experiment [6] it was over 100 µM. Also, the TGI in experiment [7] and in [8] was over 100 µM each time.

For the origin of these results see PubChem BioAssay (NCI).
